The values that follow come from US7279502B2, “Polyamine analog conjugates and quinone conjugates as therapies for cancers and prostate diseases” (Cellgate, Inc., priority 1999, dated 2007).

Each structure is given as a SMILES string. Where two headings read alike, the source gives them in different places. Some results are limits rather than exact numbers.

Data set [1] deals with prostate xenograft tumors. Conditions: nude mice; cited from earlier work.
For data set [2], the system named is A549 human large cell hung carcinoma. To be noted: constant infusion via Alzet pump delivery for 5 days; cited from earlier work.
The conditions of data set [3]: Creaven et al. (1997); cited from earlier work.
For data set [4] the following is noted: rats, Kanter et al. (1994); cited from earlier work.
The conditions of data set [5]: in one study; cited from earlier work.
Data set [6] relates to human prostate adenocarcinoma cell line PC-3. The data set is described as follows: MTT assay, quinones, PC-3. Conditions: Table 3, treatment time not given in cell, read-out: ID50 PC-3. The data set is classed as cell-based. As to the method:
(§1) Cell Culture: The human lung adenocarcinoma cell line, A549, and human prostatic cancer cell line, DUPRO, were a gift from Dr. M. Eileen Dolan, University of Chicago, Department of Medicine. A549 was grown in Ham's F-12K medium (Fisher Scientific, Itasca, Ill.) supplemented with 10% fetal bovine serum and 2 mM L-glutamine. DUPRO was grown in RPMI-1640 supplemented with 10% fetal bovine serum. The human colon carcinoma cell line, HT29, and the human breast carcinoma cell line, MCF7, were obtained from the American Type Culture Collection, Rockville, Md. HT29 cells were grown in McCoy's 5A medium (Gibco, BRL, Gaithersburg, Md.) supplemented with 10% fetal bovine serum. MCF7 cells were grown in Richter's Improved Modified Eagle's medium supplemented with 10% fetal bovine serum and 2.2 g/L sodium bicarbonate. The human prostate adenocarcinoma cell lines, LNCAP, PC-3 and DU145, were gifts from Dr. George Wilding, University of Wisconsin Comprehensive Cancer Center and the Department of Medicine, and were grown in Dulbecco's Modified Eagle's medium supplemented with a 5% fetal bovine serum. The malignant glioma cell line, U251MG NCI was obtained from the brain tumor tissue bank at the University of California, San Francisco Department of Neurosurgery, and was grown in Dulbecco's Modified Eagle's medium supplemented wth 10% fetal bovine serum. DUPRO, A549 and MCF7 cells were grown in 100 units/mL penicillin and 100 μg/mL streptomycin. HT29 and U251MG NCI cells were grown in 50 μg/mL gentamycin. LNCAP, PC-3 and DU145 cells were maintained in 1% antibiotic antimycotic solution (Sigma, St. Louis, Mo.). All cell cultures were maintained at 37° C. in 5% CO2/95% humidified air.
(§2) MTT assay. Exponentially growing monolayer cells were plated in 96 well plates at a density of 500 cells/well and allowed to grow for 24 h. Serially diluted drug solutions were added such that the final drug concentrations in the treatment media were between 0 and 35 μM. Cells were incubated with drug at either 4 hr or 72 hr. After 4 hr and 72 hr treatment, drugs were removed, fresh media (without) drug (100 uL) was added and cells were incubated for 6 days. After six days, 25 μL of a Dulbecco's phosphate-buffered saline solution containing 5 mg/mL of MTT (Thiazolyl blue) (Sigma) was added to each well and incubated for 4 h at 37° C. Then 100 μL of lysis buffer (20% sodium dodecyl sulfate, 50% N,N-dimethylformamide and 0.8% acetic acid, pH 4.7) was added to each well and incubated for an additional 22 h. A microplate reader (E max, Molecular Devices, Sunnyvale, Calif.) set at 570 nm was used to determine the optical density. Results were plotted as a ratio of the optical density in drug treated wells to the optical density in wells treated with vehicle alone. Plotting and estimation of ID50 values were accomplished with manufacturer supplied software. The data is presented below in Tables 3, 4, 5 and 6.

The test system of data set [7] is human prostate adenocarcinoma cell line DU145. Put plainly: MTT assay, quinones, DU145. It is filed as cell-based. Conditions: DU-145, Table 3, treatment time not given in cell, read-out: ID50 DU145. As to the method:
as §1
(§3) MTT assay. Exponentially growing monolayer cells were plated in 96 well plates at a density of 500 cells/well and allowed to grow for 24 h. Serially diluted drug solutions were added such that the final drug concentrations in the treatment media were between 0 and 35 μM. […] A microplate reader (E max, Molecular Devices, Sunnyvale, Calif.) set at 570 nm was used to determine the optical density. […]
In general terms: Tetrazolium assays rely on reduction of a dye to a coloured formazan, in cell work by metabolically active cells.

In data set [8] the test system is human prostatic cancer cell line, DUPRO. The data set is described as follows: MTT assay, quinones, DUPRO. It is filed as cell-based. Conditions: Table 3, treatment time not given in cell, read-out: ID50 DUPRO. As to the method: as §1, §3
The subject of data set [9] is malignant glioma cell line, U251MG NCI. Put plainly: MTT assay, quinones, U251MG NCI. The data set is classed as cell-based, human. To be noted: read-out: ID50 Brain U251-MG. As to the method:
as §1, with “The malignant glioma cell line, U251MG NCI was obtained from the brain tumor tissue bank at the University of California, San Francisco Department of Neurosurgery, and was grown in Dulbecco's Modified Eagle's medium supplemented wth 10% fetal bovine serum. DUPRO, A549 and MCF7 cells were grown in 100 units/mL penicillin and 100 μg/mL streptomycin. HT29 and U251MG NCI cells were grown in 50 μg/mL gentamycin. LNCAP, PC-3 and DU145 cells were maintained in 1% antibiotic antimycotic solution (Sigma, St. Louis, Mo.). All cell cultures were maintained at 37° C. in 5% CO2/95% humidified air.” left out
MTT assay. […] A microplate reader (E max, Molecular Devices, Sunnyvale, Calif.) set at 570 nm was used to determine the optical density. […]

The subject of data set [10] is human breast carcinoma cell line, MCF7. The data set is described as follows: MTT assay, quinones, MCF7. To be noted: Table 4, treatment time not given in cell, read-out: ID50 Breast MCF7. The data set is classed as cell-based. As to the method: as §1, §2

For `CCNCCCNCCCNCCCNCC` [BE-333, N1,N11-diethylnorspermine], the “inhibition of prostate xenograft tumors” value in data set [1] is “particularly effective in inhibiting prostate xenograft tumors in nude mice”. Moreover, the “anti-tumor activity, effect of schedule” value in data set [2] is given as “dramatically improves the anti-tumor activity”. For the same compound, the side effects entry in data set [3] is “headache, nausea and vomiting, unilateral weakness, dysphagia, dysarthria, numbness, paresthesias, and ataxia”. For the same compound, the toxicity on administration result in data set [4] was “labored breathing, convulsive movements and acute death”.
For the compound `CCNCCCNCCCCCCCNCCCNCC` [BE-373], the “inhibition of prostate xenograft tumors” value in data set [1] is “particularly effective in inhibiting prostate xenograft tumors in nude mice”.
On to `CCNCCCCNCCCCNCCCCNCCCCNCC` [BE-4444, 1,19-bis(ethylamino)-5,10,15-triazanonadecane], for which the “inhibition of prostate xenograft tumors” value in [1] is given as “particularly effective in inhibiting prostate xenograft tumors in nude mice”.
For `CC(/C=N/NC(=N)N)=N\NC(=N)N` [MGBG, methylglyoxal-bis-guanylhydrazone], the “side effects, drug deaths” value in data set [5] is on record as “drug deaths occurred in over half of treated animals”.
`O=C1C=C(OCCCCCCO)c2ccccc2C1=O` [SL-11051]: the results for the IC50 in data set [6], in [7] and in data set [8] were 17.1 µM, 11.2 µM and 19.3 µM, respectively.
Regarding `CC1(C)CCC2=C(O1)c1ccccc1C(=O)C2=O` [SL-11058], the IC50 in data set [9] (Table 6, non-quinone compounds) was above 31.2 µM.
For `O=C1C=C(OCCCCCNC2CCCCC2)c2ccccc2C1=O` [SL-11060], the IC50 is above 31.2 µM in [9] (Homo sapiens, U-251, Table 4, treatment time not given in cell) and 17.2 µM in data set [10].
